Test system: Alternaria solani
Test: Efficacy against early blight of tomato caused by Alternaria solani (Alteso P1), greenhouse
Assay type: in vivo
Details: Comparative Example 1, potted tomato plants, visual rating after 5 days
Protocol: The active compounds were prepared separately or jointly as a stock solution comprising 25 mg of active compound which was made up to 10 ml using a mixture of acetone and/or DMSO and the emulsifier Wettol EM 31 (wetting agent having emulsifying and dispersing action based on ethoxylated alkylphenols) in a volume ratio of solvent/emulsifier of 99:1. The mixture was then made up to 100 ml with water. This stock solution was diluted with the solvent/emulsifier/water mixture described to give the concentration of active compounds stated below. Leaves of potted tomato plants were sprayed to runoff point with an aqueous suspension having the active compound concentration stated below. The next day, the leaves were inoculated with an aqueous spore suspension of Alternaria solani in a 2% biomalt solution. The plants were then placed in a water vapor-saturated chamber at temperatures between 20 and 22° C. After 5 days, the disease on the untreated but infected control plants had developed to such an extent that the infection could be determined visually in %. […]

Row | SMILES | Infection in % at 63 ppm for Alteso P1
1 | COc1ccc([C@@]2(Cn3cncn3)O[C@@H]2c2ccccc2Cl)c(F)c1 (racemic) [Compound 14.10] | 5%
2 | COc1ccc(C2(Cn3cncn3)OC2c2ccccc2Cl)cc1 (centres unmarked) [As described in EP-A 0 196 038] | 90%

From patent US20120220455A1, “Azolylmethyloxiranes, Their Use for Controlling Phytopathogenic Fungi and Compositions Comprising Them” (BASF SE, priority 2006, published 2012)
